Test results taken from patent publication US9133195B2, “Quaternary ammonium salt compounds of spirocyclopiperazines, preparation methods and uses thereof” (Peking University, priority 2006, dated 2015).
Like-named read-outs stand apart in the source and are kept apart here.

Assays:
[1] = tested on: mice; assay: Hot-plate test; format: in vivo; settings: for pain threshold elevated rate (PTE %): at 2.0 h, 55° C. hot-plate; for ED50: Mus musculus, sc
Method: The temperature of the hot-plate was adjusted to 55° C. With licking hind paws and jumping as observation index, the time from placing of the animal on the hot plate to observation the above reactions was recorded as latency time, Latency time was measured for three times and calculated their mean value as Basal threshold or Baseline latency (BL), Mice with latency time of less than 5 s or more than 10 s were eliminated from the study. The remaining mice were divided into 8 groups, and 10 mice in each group. The following groups were established: the normal saline control group (NS), in which normal saline was administered (s.c.); the morphine control group (Mor), in which morphine was administered (s.c.) at the dose of 10.0 mg/kg; and compound LXM-10 groups, in which compound LXM-10 were administered (s.c.) at the dose of 0.75, 1.5, 3.0, 6.0, 12.0 and 24.0 mg/kg. All drugs were dissolved in normal saline before use. The drugs injected at the dose of 0.1 ml/10 g. The latency times were measured at 1.0, 1.5, 2.0, and 3.0 h after administering LXM-10. The cut-off time was set at 30 s to avoid skin scald. The percentage of pain threshold elevated rate (PTE %) was determined by using the following formula (2): PTE %=(The latency time of drug injection group−the latency time of control group at the corresponding time point)/the latency time of control group at the corresponding time point×100% (2)
To judge whether LXM-10 was effective as analgesic using this criterion: at the peak time point of this compound, the latency times of each compound LXM-10 group was greater than the mean latency time of normal saline control group at the corresponding time point plus three times of standard deviation. The effective percentage of each group was calculated made data conversion, then calculated the analgesic ED50 and 95% confidence interval (CI) in accordance with the formulae (3) and (4) using General Method for Calculating.
Wherein, Xm represents the logarithm value of the largest dose, i refers to group interval, ΣP refers to the sum of each group's efficiency, ΣP^2 represents the square sum of each group's efficiency, n refers to numbers of experimental groups.

[2] = tested on: mice; assay: Spontaneous motion in mice; format: in vivo; settings: for Numbers of movement: before treatment
Method: (§1) All the following tests were carried out by using compound LXM-10 according to the routine methods.

[3] = tested on: mice; assay: Function of motion coordination (rota-rod); format: in vivo; settings: for Time of falling down from rota-rod: before treatment
Method: as §1
The effect of muscle-relaxed effect on the analgesic effect of LXM-10 was also excluded.

[4] = Acute toxicity test; settings: in vivo, sc
Method: as §1

[5] = tested on: mice; assay: Addiction test (tail-erected response); format: in vivo; settings: doses of 6.0, 12.0, 24.0 or 445.0 mg/kg
Method: as §1
They are quiet and normal.

[6] = Body temperature in mice; format: in vivo; settings: for Rectal temperature: before treatment
Method: as §1

[7] = tested on: Kunming mice; assay: Acetic acid-induced writhing test; format: in vivo; settings: Mus musculus, sc; 31.0 umol/kg s.c.; acetic acid i.p. after 30 min; writhing counted for 10 min
Method: Kunming mice, male and female in half, were randomly divided into groups with 8 mice in each group. The following groups were established: the normal saline (NS) control group, in which normal saline was administered by subcutaneous injection (s.c.); the test groups, in which 31.0 umol/kg quaternary ammonium salts compounds of piperazines of the present invention was administered by s.c. All drugs were dissolved in normal saline before use. The drug was injected at the dose of 0.1 ml/10 g. After 30 min, 0.2 ml of 0.6% acetic acid was injected intraperitoneally for each mouse. After 2˜3 min, the writhing reactions such as abdominal constriction, stretch of body and hind limbs, and hip raise occurred. Five minutes after acetic acid injection, the numbers of writhing was counted for 10 min. The percentage of inhibition was determined by using the following formula (1): Inhibition %=[(The numbers of writhing of control group−the numbers of writhing of drag injection group)/the numbers of writhing of control group]×100% (1) 2 Experimental Results
This experiment was carried out according to that of Example 36.

[8] = tested on: Kunming mice; assay: Acetic acid-induced writhing test; format: in vivo; settings: 0.5 h after s.c. administration
[9] = tested on: ICR mice; assay: Formalin test; format: in vivo; settings: 0.5 h after s.c., dose not stated
Method: Sixty ICR mice, male and female in half, were divided into six groups with 10 mice in each group. The following groups were established: the normal saline (NS) control group, in which normal saline was administered by s.c.; the aspirin control group, in which aspirin was administered by i.g. at the dose of 300 mg/kg; the morphine control, group, in which morphine was administered (s.c.) at the dose of 10.0 mg/kg; and compound LXM-10 groups, in which compound LXM-10 were administered (s.c.) at the dose of 0.75, 1.5, 3.0 and 6.0 mg/kg. All drugs were dissolved in normal saline before use. The drugs injected at the dose of 0.1 ml/10 g. 30 min after administration, animals were administered 20 ul of 2.5% formalin solution on the right front paws. The licking times were recorded immediately in the duration of 0˜5 minutes as phase I reaction; After 20 minutes, the licking times were recorded in the duration of 20˜25 minutes as phase II reaction. The percentage of pain inhibition (%) was determined by using the following formula (5): Pain inhibition %=[(The licking time of normal saline control group−the licking time of drug injection group)/the licking time of normal saline control group]×100% (5) 2. Experimental Results

CC1C[N+]2(CCN(CCc3ccccc3)CC2)CC(C)O1 (stereo not drawn) [LXM-10, 2,4-dimethyl-9-β-phenylethyl-3-oxo-6,9-diazaspiro[5.5]undecane chloride]
pain threshold elevated rate (PTE %) ([1]; 1.5 mg/kg s.c.): 47.5%
pain threshold elevated rate (PTE %) ([1]; 3.0 mg/kg s.c.): 54.8%
pain threshold elevated rate (PTE %) ([1]; 6.0 mg/kg s.c.): 79.2%
pain threshold elevated rate (PTE %) ([1]; 12.0 mg/kg s.c.): 126.8%
ED50 ([1]; hot-plate, at peak time, read-out: analgesic ED50): 3.2 mg/kg
ED50 ([1]; hot-plate, read-out: ED50 95% confidence interval): 1.8 to 5.4 mg/kg
analgesic effect persisted to ([1]; s.c., hot-plate): 3.0 h
onset time of analgesic effect ([1]; s.c., hot-plate): 1.0 h
peak time of analgesic effect ([1]; s.c., hot-plate): 2.0 h
Numbers of movement after treatment ([2]; 6.0 mg/kg, 0.5 h): 46.6 ± 2.63
Numbers of movement after treatment ([2]; 6.0 mg/kg, 2.0 h): 42.3 ± 3.38
Numbers of movement after treatment ([2]; 6.0 mg/kg, 3.5 h): 48.0 ± 5.00
Numbers of movement ([2]; 6.0 mg/kg): 46.8 ± 1.96
Numbers of movement after treatment ([2]; 12.0 mg/kg, 0.5 h): 48.0 ± 6.21
Numbers of movement after treatment ([2]; 12.0 mg/kg, 2.0 h): 48.1 ± 6.14
Numbers of movement after treatment ([2]; 12.0 mg/kg, 3.5 h): 48.0 ± 7.85
Numbers of movement ([2]; 12.0 mg/kg): 47.7 ± 2.55
Numbers of movement after treatment ([2]; 24.0 mg/kg, 0.5 h): 43.5 ± 4.21
Numbers of movement after treatment ([2]; 24.0 mg/kg, 2.0 h): 45.5 ± 6.05
Numbers of movement after treatment ([2]; 24.0 mg/kg, 3.5 h): 46.6 ± 3.69
Numbers of movement ([2]; 24.0 mg/kg): 50.2 ± 2.31
effect on spontaneous motion ([2]; 6.0, 12.0, 24.0 mg/kg): did not significantly affect
Time of falling down from rota-rod after treatment ([3]; 6.0 mg/kg, 0.5 h): 106.5 ± 8.88 s
Time of falling down from rota-rod after treatment ([3]; 6.0 mg/kg, 2.0 h): 110.0 ± 5.17 s
Time of falling down from rota-rod after treatment ([3]; 6.0 mg/kg, 3.5 h): 116.2 ± 3.75 s
Time of falling down from rota-rod ([3]; 6.0 mg/kg): 96.7 ± 9.17 s
Time of falling down from rota-rod after treatment ([3]; 12.0 mg/kg, 0.5 h): 109.6 ± 10.3 s
Time of falling down from rota-rod after treatment ([3]; 12.0 mg/kg, 2.0 h): 109.3 ± 8.15 s
Time of falling down from rota-rod after treatment ([3]; 12.0 mg/kg, 3.5 h): 119.6 ± 0.38 s
Time of falling down from rota-rod ([3]; 12.0 mg/kg): 96.6 ± 8.93 s
Time of falling down from rota-rod after treatment ([3]; 24.0 mg/kg, 0.5 h): 112.7 ± 5.18 s
Time of falling down from rota-rod after treatment ([3]; 24.0 mg/kg, 2.0 h): 117.5 ± 2.50 s
Time of falling down from rota-rod after treatment ([3]; 24.0 mg/kg, 3.5 h): 119.0 ± 1.00 s
Time of falling down from rota-rod ([3]; 24.0 mg/kg): 101.2 ± 9.15 s
effect on function of motion coordination ([3]; 6.0, 12.0, 24.0 mg/kg): did not significantly affect
LD50 ([4]; read-out: LD50): 514 mg/kg
LD50 ([4]; read-out: LD50 95% confidence interval): 495 to 531 mg/kg
tail-erected response [5]: no tail-erected response
Rectal temperature after treatment ([6]; 6.0 mg/kg, 0.5 h): 37.3 ± 0.35 °C
Rectal temperature after treatment ([6]; 6.0 mg/kg, 2.0 h): 37.3 ± 0.28 °C
Rectal temperature after treatment ([6]; 6.0 mg/kg, 3.5 h): 37.5 ± 0.29 °C
Rectal temperature ([6]; 6.0 mg/kg): 37.7 ± 0.34 °C
Rectal temperature after treatment ([6]; 12.0 mg/kg, 0.5 h): 37.0 ± 0.26 °C
Rectal temperature after treatment ([6]; 12.0 mg/kg, 2.0 h): 37.1 ± 0.24 °C
Rectal temperature after treatment ([6]; 12.0 mg/kg, 3.5 h): 37.1 ± 0.20 °C
Rectal temperature ([6]; 12.0 mg/kg): 37.1 ± 0.09 °C
Rectal temperature after treatment ([6]; 24.0 mg/kg, 0.5 h): 37.5 ± 0.21 °C
Rectal temperature after treatment ([6]; 24.0 mg/kg, 2.0 h): 37.0 ± 0.19 °C
Rectal temperature after treatment ([6]; 24.0 mg/kg, 3.5 h): 37.3 ± 0.16 °C
Rectal temperature ([6]; 24.0 mg/kg): 37.0 ± 0.18 °C
effect on body temperature ([6]; 6.0, 12.0, 24.0 mg/kg): did not affect
inhibition in vivo at 31 µmol/kg [7]: 65%
percentage of pain inhibition ([8]; 1.5 mg/kg): 63.4%
percentage of pain inhibition ([8]; 3.0 mg/kg): 78.8%
percentage of pain inhibition ([8]; 6.0 mg/kg): 79.2%
percentage of pain inhibition ([8]; 12.0 mg/kg): 55.6%
percentage of pain inhibition, Phase II ([9]; first of three values): 67.0%
percentage of pain inhibition, Phase II ([9]; second of three values): 69.6%
percentage of pain inhibition, Phase II ([9]; third of three values): 50.0%
